Data reported in US20100196264A1, “USE OF SOMATOSTATIN ANALOGS IN MYOCARDIAL PERFUSION IMAGING” (THE BRIGHAM AND WOMEN'S HOSPITAL, INC., priority 2007, published 2010).

Tests used:
[1] = test system: extracardiac uptake of radiotracer; assay: Myocardial perfusion imaging with periprocedural somatostatin analog (examples); assay type: in vivo
[2] = target: SST1 (Homo sapiens, UniProt P30872); details: cited from earlier work
[3] = target: SST2 (Homo sapiens, UniProt P30874); details: cited from earlier work
Chain of SST2 (P30874 whole entry): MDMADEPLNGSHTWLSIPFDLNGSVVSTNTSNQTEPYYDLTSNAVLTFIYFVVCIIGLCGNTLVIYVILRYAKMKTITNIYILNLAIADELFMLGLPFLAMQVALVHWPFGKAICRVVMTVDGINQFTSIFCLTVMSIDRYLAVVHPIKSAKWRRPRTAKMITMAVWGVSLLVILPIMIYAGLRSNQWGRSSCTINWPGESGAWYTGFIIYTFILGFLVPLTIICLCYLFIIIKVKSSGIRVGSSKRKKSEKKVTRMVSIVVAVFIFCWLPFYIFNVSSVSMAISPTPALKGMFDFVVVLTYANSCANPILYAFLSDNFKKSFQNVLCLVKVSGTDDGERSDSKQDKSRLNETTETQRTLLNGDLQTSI

[4] = target: SST3 (Homo sapiens, UniProt P32745); details: cited from earlier work
Chain of SST3 (P32745 whole entry): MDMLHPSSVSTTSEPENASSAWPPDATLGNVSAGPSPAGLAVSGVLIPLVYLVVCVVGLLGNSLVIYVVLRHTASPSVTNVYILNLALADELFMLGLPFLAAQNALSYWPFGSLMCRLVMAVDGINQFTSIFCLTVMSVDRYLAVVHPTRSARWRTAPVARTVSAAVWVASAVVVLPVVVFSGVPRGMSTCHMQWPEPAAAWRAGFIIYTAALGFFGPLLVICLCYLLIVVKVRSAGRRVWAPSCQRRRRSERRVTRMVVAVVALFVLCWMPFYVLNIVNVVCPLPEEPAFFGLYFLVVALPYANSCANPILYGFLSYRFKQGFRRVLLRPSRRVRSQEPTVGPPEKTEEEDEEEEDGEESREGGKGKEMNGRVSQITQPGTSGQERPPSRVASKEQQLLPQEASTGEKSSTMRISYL

[5] = target: SST4 (Homo sapiens, UniProt P31391); details: cited from earlier work
Chain of SST4 (P31391 whole entry, the tested form may be a part): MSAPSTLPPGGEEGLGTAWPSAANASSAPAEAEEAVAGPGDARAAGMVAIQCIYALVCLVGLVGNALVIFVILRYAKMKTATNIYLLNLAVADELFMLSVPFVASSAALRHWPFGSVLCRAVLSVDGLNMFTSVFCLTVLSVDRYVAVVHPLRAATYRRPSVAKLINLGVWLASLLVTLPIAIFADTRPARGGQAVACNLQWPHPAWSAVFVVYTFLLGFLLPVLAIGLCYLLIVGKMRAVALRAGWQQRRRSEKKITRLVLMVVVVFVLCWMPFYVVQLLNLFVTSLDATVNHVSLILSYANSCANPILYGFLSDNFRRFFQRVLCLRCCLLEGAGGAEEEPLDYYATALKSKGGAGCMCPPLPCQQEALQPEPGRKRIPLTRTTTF

[6] = test system: portal vein flow; details: infusion at various infusion concentrations; adapted from Digestion 1999; 60:132-140; cited from earlier work
[7] = test system: gastric mucosal blood flow; details: fifteen minutes after a single bolus injection; laser Doppler flowmeter; adapted from Surg Endosc (2003) 17: 1570-1572; cited from earlier work
[8] = typical administration at rest; Cardiolite Product Insert; cited from earlier work
[9] = test system: abdominal radiotracer uptake; details: literature, cited from earlier work; for obscuring effect of abdominal radiotracer uptake: myocardial perfusion imaging

Chain of SST1 (P30872 whole entry): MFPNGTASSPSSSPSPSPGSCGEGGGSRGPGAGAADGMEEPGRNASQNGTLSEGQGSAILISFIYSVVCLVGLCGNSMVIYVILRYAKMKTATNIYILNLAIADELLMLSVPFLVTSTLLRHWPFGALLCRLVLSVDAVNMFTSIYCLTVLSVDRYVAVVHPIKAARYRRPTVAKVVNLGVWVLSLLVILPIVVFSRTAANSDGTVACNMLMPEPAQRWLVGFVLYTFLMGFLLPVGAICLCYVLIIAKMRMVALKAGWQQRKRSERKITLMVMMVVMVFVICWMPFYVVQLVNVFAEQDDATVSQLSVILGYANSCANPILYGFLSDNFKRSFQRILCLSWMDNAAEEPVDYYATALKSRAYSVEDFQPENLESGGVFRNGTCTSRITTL

Molecule | affinity for SST1 (in words) [2] | affinity for SST2 (in words) [3] | affinity for SST3 (in words) [4] | affinity for SST4 (in words) [5] | obscuring effect of abdominal radiotracer uptake [9] | further results
C[C@@H](O)[C@@H]1NC(=O)[C@H](CCCCN)NC(=O)[C@@H](Cc2c[nH]c3ccccc23)NC(=O)[C@H](Cc2ccccc2)NC(=O)[C@@H](NC(=O)[C@H](N)Cc2ccccc2)CSSC[C@@H](C(=O)N[C@H](CO)[C@@H](C)O)NC1=O [Octreotide, octreotide] | virtually no affinity | displaying affinity | displaying affinity | virtually no affinity | – | extracardiac uptake of radiotracer ([1]; 100 mcg bolus fifteen minutes prior to radiotracer, then 100 mcg per hour constant infusion, adenosine stress): reduced; extracardiac uptake of radiotracer ([1]; 100 mcg bolus ten minutes prior to radiotracer, second 100 mcg bolus ten minutes prior to adenosine stress): reduced; portal vein flow [6]: decrease; reduction in gastric mucosal blood flow [7]: 50%
[C-]#[N+]CC(C)(C)OC.[C-]#[N+]CC(C)(C)OC.[C-]#[N+]CC(C)(C)OC.[C-]#[N+]CC(C)(C)OC.[C-]#[N+]CC(C)(C)OC.[C-]#[N+]CC(C)(C)OC.[Tc] [Tc-99m-setsamibi] | – | – | – | – | – | total dose absorbed into the liver [8]: 19%; total dose taken into the heart [8]: 1.2%
Cn1c(=O)c2[nH]cnc2n(C)c1=O [aminophyllin] | – | – | – | – | – | artifacts in images taken after the dipyridamole injection ([9]; used to counter dipyridamole stress): does not prevent artifacts
CC(C)[C@@H]1NC(=O)[C@H](CCCCN)NC(=O)[C@@H](Cc2c[nH]c3ccccc23)NC(=O)[C@H](Cc2ccc(O)cc2)NC(=O)[C@@H](NC(=O)[C@H](N)Cc2ccc3ccccc3c2)CSSC[C@@H](C(=O)N[C@H](C(N)=O)[C@@H](C)O)NC1=O [lanreotide] | virtually no affinity | displaying affinity | displaying affinity | virtually no affinity | – | extracardiac uptake of radiotracer ([1]; 200 mcg bolus thirty minutes prior to radiotracer, then 200 mcg per hour infusion for rest injections, treadmill exercise stress): reduced
CCN(CC)CCNC(=O)c1cc(Cl)c(N)cc1OC [metoclopromide] | – | – | – | – | did not significantly decrease | –
cholecystokinin (peptide, UniProt P06307 21-115, looked up, Cholecystokinin, gastric stimulant) Cholecystokinin: QPVPPADPAGSGLQRAEEAPRRQLRVSQRTDGESRAHLGALLARYIQQARKAPSGRMSIVKNLQNLDPSHRISDRDYMGWMDFGRRSAEEYEYPS | – | – | – | – | without success | –
